Experimental data reported in patent US12612427B2, “Aryl glucoside derivative, preparation method therefor and application thereof” (Shanghai Zheye Biotechnology Co. Ltd., priority 2020, dated 2026).
“And” between values parts separate entries of the source, which are not always exact repeats. Identical values can stand only once.

Tests used:
[1] = Lipid solubility and water solubility; format: physicochemical; settings: compared with the compound of Example 5
[2] = biological target: T1, human SGLT1 (Homo sapiens, UniProt P13866); experiment: hSGLT1 inhibitor activity experiment 2: 2-NBDG uptake by HEK293 cells stably expressing human SGLT1; format: cell-based; settings: for IC50: 2-NBDG uptake, HEK293 stably expressing human SGLT1, read-out: SGLT1 Inhibitory Activity
T1 construct: expressed in transfected cells
T1 sequence (P13866 1-664): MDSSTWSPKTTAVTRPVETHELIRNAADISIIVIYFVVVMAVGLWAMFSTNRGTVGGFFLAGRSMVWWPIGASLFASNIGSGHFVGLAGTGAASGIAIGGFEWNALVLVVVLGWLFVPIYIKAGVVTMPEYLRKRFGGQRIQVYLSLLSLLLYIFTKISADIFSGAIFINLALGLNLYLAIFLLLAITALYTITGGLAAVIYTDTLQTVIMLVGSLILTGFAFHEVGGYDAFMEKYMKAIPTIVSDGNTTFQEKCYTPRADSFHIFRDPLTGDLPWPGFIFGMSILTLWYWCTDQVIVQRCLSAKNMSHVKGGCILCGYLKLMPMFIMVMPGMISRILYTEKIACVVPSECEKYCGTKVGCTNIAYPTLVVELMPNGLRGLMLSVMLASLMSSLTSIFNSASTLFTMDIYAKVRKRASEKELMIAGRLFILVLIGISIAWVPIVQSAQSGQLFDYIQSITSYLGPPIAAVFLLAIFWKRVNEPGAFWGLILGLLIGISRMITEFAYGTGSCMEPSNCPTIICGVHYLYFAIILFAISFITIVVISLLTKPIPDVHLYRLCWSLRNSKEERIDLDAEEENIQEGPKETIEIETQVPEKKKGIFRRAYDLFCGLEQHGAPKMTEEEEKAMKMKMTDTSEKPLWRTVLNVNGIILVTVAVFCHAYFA
Description: Inhibitory activity testing was performed with reference to a similar method described in document [Acta Pharmaceutica Sinica 2017, 52 (6): 897-903; Nature Protocols (2007), 2(3), 753-762; Journal of Biochemical and Biophysical Methods (2005), 64(3), 207-215; Diabetes Technology & Therapeutics (2011), 13(7), 743-775].
In this experiment, the in vitro activity assay was evaluated using the uptake of 2-NBDG (2-Deoxy-2-[(7-nitro-2,1,3-benzoxadiazol-4-yl)amino]-D-glucose, CAS NO: 186689-07-6) by human embryonic kidney epithelial cells (HEK293, stably expressing human SGLT1), and the SGLT1 inhibitory activity of the target compound was determined by measuring its half-maximal inhibitory concentration (IC50).
HEK293 cells that can stably express human SGLT1 gene were inoculated into a 96-well clear-bottom black plate containing DMEM medium. The cells were incubated at 37° C., 5% CO2 in a cell incubator. The medium in the 96-well plate was aspirated, and the plate was treated with low-glucose serum-free DMEM medium, and washed once with non-specific uptake buffer and once with Na^+-dependent uptake buffer. Uptake buffer containing test compound was added to each well of cells, followed by uptake buffer containing 2-NBDG for glucose uptake, and the cell plate was incubated at 37° C., 5% CO2. The compounds were gradiently diluted. The uptake reaction was stopped by removing the culture medium, and after washing the cells with ice-cold uptake buffer, the washing solution was removed. The cells were lysed by adding NaOH, and the content of 2-NBDG in the cells was detected by a fluorescence microplate reader. The protein concentration of the lysate was measured by BCA method, the uptake of 2-NBDG was quantified by fluorescence intensity/protein content, and the obtained data were analyzed using GraphPad Prism to determine the median inhibitory concentration (IC50) of the compound to be tested.

[3] = tested on: SD rats; experiment: Oral glucose tolerance test (OGTT) after continuous administration in rats for 14 days; format: in vivo, rat; settings: for blood sugar level of rats (OGTT): 0.009 mg/kg oral gavage, 14 days, OGTT on day 15; for loose stools in the experimental animals: rats, within 48 hours before and after the experiment
Description: • Experimental animals: SPF male SD rats; • Compound preparation: an appropriate amount of the compounds of Example 1, Example 2, Example 9, Example 10, and Example 17 were weighed, and uniformly suspended with an appropriate amount of 0.5% CMC-Na solution; • Preparation of glucose solution: an appropriate amount of glucose powder was weighed and dissolved with an appropriate amount of pure water; • Dosage and method of administration: 0.009 mg/kg, oral gavage.
Experimental process: the animals were fed a normal diet with consecutive administration for 14 days, and the glucose tolerance test was performed on day 15, blood glucose was detected before administration (−30 min), before giving glucose (0 min), and 10, 30, 60, and 120 min after giving glucose solution, and the defecation of animals was observed.

[4] = Pharmacokinetic study in rats; format: in vivo, rat; settings: 10 mg/kg, oral gavage, 0-24 hours
Description: 5. Pharmacokinetic Study in Rats • Experimental animals: SPF male SD rats; • Dosage and method of administration: 10 mg/kg, oral gavage. • Research compound: Dapagliflozin, the compound of Example 9, the compound of Example 10, the compound of Example 17, and the comparative compound 6;
Test method: Before administration (0), and 1, 4, 8, and 24 hours after administration, 0.2 ml of blood was collected from orbital venous plexus, anticoagulated with heparin, plasma was collected, and the blood drug concentration was determined.

[5] = tested on: SD mice; experiment: Oral glucose tolerance test (OGTT) after consecutive administration in mice; format: in vivo, mouse; settings: for Statistics of loose stools in animals / loose stools (in words): mice
Description: • Experimental animals: SPF male SD mice; • Compound preparation: an appropriate amount of the compound of Example 10 was weighed, and uniformly suspended with an appropriate amount of 0.5% CMC-Na solution; • Preparation of glucose solution: an appropriate amount of glucose powder was weighed and dissolved with an appropriate amount of pure water; • Administration and dosage: oral gavage; blank vehicle group, high-dose group (1.5 mg/kg), low-dose group (0.1 mg/kg). Experimental Process: • (1) The mice were fed a high-sugar diet for 6 days, and then grouped (10 mice in each group) to enter the administration stage; • (2) Example compound 10 was administered at 5:00 pm every day from day 1 to day 5, once a day, and then the animals were fed a high-sugar free diet, and the defecation of the animals was observed. • (3) On day 6, oral glucose tolerance test was performed, and glucose solution (2 g/kg) was orally administered. Blood glucose was detected before (0 min) and 10, 30, and 60 min after giving glucose solution, respectively. Experimental Results: • (1) From day 1 to day 5, the observation of animal defecation after continuous administration is summarized as follows: […]

[6] = tested on: type 2 diabetes mouse model; experiment: In vivo hypoglycemic efficacy experiment combined with sitagliptin; settings: 0.01, 0.05, 0.1 mg/kg combined with 20 mg/kg of sitagliptin, STZ and high-fat high-sugar diet mice
Description: Model establishment: SPF grade Balb/C male mice were used in this experiment, and the establishment of the type 2 diabetes mouse model was induced by intraperitoneal injection of streptozotocin (STZ) supplemented by high-fat and high-sugar diet. • Group: 10 per group
Administration: normal group, model group, low-dose combined administration group (0.01 mg/kg of the compound of Example 10+20 mg/kg of sitagliptin), medium-dose combined administration group (0.05 mg/kg of the compound of Example 10+20 mg/kg of sitagliptin), high-dose combined administration group (0.1 mg/kg of the compound of Example 10+20 mg/kg of sitagliptin), sitagliptin group (20 mg/kg). The normal group and the model group were given the solvent by gavage.

[7] = tested on: microorganisms in rat feces; experiment: Intestinal microbial metabolic stability in rat feces suspension; format: in vitro ADME; settings: for Percentage of remaining compound: rat feces suspension, 37° C.
Description: Methods: The collected rat feces were processed, and the feces suspension was obtained for the determination of metabolic stability. The mixed reaction system consisting of the rat feces suspension and the compound of […] was incubated at 37° C. for 3 h, 6 h, 12 h and 24 h. The compound of Example 10 in the incubation system was analyzed to determine the total amount of remaining compound. Wherein, “+” represents the remaining percentage being: <50%; “++” represents the remaining percentage being: 50% to 70%; “+++” represents the remaining percentage being: 70% to 90%; “++++” means the remaining percentage being: >90%.

Row | Compound | activity of inhibiting SGLT1 (in words) [2] | IC50 [2] | blood sugar level of rats (OGTT) [3] | loose stools in the experimental animals [3] | drug concentration in plasma [4] | other results
1 | CS[C@H]1O[C@@H](c2ccc(C)c(Cc3ccc(CCCC(=O)NC(C)(C)C(=O)NCCN(C)CC(=O)N(C)Cc4cn(C5CC5)nn4)cc3)c2)[C@H](O)[C@@H](O)[C@@H]1O |  |  |  |  |  | lipid solubility [1]: better; water solubility [1]: better
2 | CS[C@H]1O[C@@H](c2ccc(C)c(Cc3ccc(CCCC(=O)NC(C)(C)C(=O)NCCN(C)CC(=O)N4CCCC4)cc3)c2)[C@H](O)[C@@H](O)[C@@H]1O [Example 1] | significant activity of inhibiting SGLT1 | 0.78 nM | significantly reduce the blood sugar level | no loose stools were observed |  | 
3 | CS[C@H]1O[C@@H](c2ccc(C)c(Cc3ccc(CCCC(=O)NC(C)(C)C(=O)NCCN(C)CC(=O)N(C)C)cc3)c2)[C@H](O)[C@@H](O)[C@@H]1O [Example 2] | significant activity of inhibiting SGLT1 | 1.12 nM | significantly reduce the blood sugar level | no loose stools were observed |  | 
4 | CS[C@H]1O[C@@H](c2ccc(C)c(Cc3ccc(CCCC(=O)NC(C)(C)C(=O)NCCN(C)CC(=O)N4CCN(C)CC4)cc3)c2)[C@H](O)[C@@H](O)[C@@H]1O [Example 3] | significant activity of inhibiting SGLT1 | 0.93 nM |  |  |  | 
5 | CS[C@H]1O[C@@H](c2ccc(C)c(Cc3ccc(CCCC(=O)NC(C)(C)C(=O)N4CCN(CC(=O)N5CCCC5)CC4)cc3)c2)[C@H](O)[C@@H](O)[C@@H]1O [Example 4] | significant activity of inhibiting SGLT1 | 0.87 nM |  |  |  | 
6 | C#CCN(CCNC(=O)C(C)(C)NC(=O)CCCc1ccc(Cc2cc([C@@H]3O[C@H](SC)[C@@H](O)[C@H](O)[C@H]3O)ccc2C)cc1)CC(=O)N1CCCC1 [Example 9] | significant activity of inhibiting SGLT1 | 0.53 nM | significantly reduce the blood sugar level | no loose stools were observed | did not reach the detection limit | 
7 | C#CCN(C)C(=O)CN(C)CCNC(=O)C(C)(C)NC(=O)CCCc1ccc(Cc2cc([C@@H]3O[C@H](SC)[C@@H](O)[C@H](O)[C@H]3O)ccc2C)cc1 [Example 10] | significant activity of inhibiting SGLT1 | 0.37 nM | significantly reduce the blood sugar level | no loose stools were observed | did not reach the detection limit | blood glucose level of mice (OGTT) ([5]; day 6, high (1.5 mg/kg) and low (0.1 mg/kg) dose groups, glucose 2 g/kg): significantly reduce the blood glucose level; Statistics of loose stools in animals ([5]; high-dose group (1.5 mg/kg), Day 1): only one animal had loose stools and 1/10; Statistics of loose stools in animals ([5]; high-dose group (1.5 mg/kg), Day 2): 0/10; Statistics of loose stools in animals ([5]; high-dose group (1.5 mg/kg), Day 3): 0/10; Statistics of loose stools in animals ([5]; high-dose group (1.5 mg/kg), Day 4): 0/10; Statistics of loose stools in animals ([5]; high-dose group (1.5 mg/kg), Day 5): 0/10; loose stools (in words) ([5]; high-dose group (1.5 mg/kg), day 2 to day 5): did not have loose stools; Statistics of loose stools in animals ([5]; low-dose group (0.1 mg/kg), Day 1): 0/10; Statistics of loose stools in animals ([5]; low-dose group (0.1 mg/kg), Day 2): 0/10; Statistics of loose stools in animals ([5]; low-dose group (0.1 mg/kg), Day 3): 0/10; Statistics of loose stools in animals ([5]; low-dose group (0.1 mg/kg), Day 4): 0/10; Statistics of loose stools in animals ([5]; low-dose group (0.1 mg/kg), Day 5): 0/10; loose stools (in words) ([5]; low-dose group (0.1 mg/kg), continuous administration for 5 days): did not have loose stools; blood glucose level of diabetic model animals [6]: significantly reduce the blood glucose level; remaining compound ([7]; incubated with microorganisms in rat feces for about 24 hours): > 70%; Percentage of remaining compound ([7]; incubation 3 h): ++++ (“++++” means the remaining percentage being: >90%); Percentage of remaining compound ([7]; incubation 6 h): +++ (“+++” represents the remaining percentage being: 70% to 90%); Percentage of remaining compound ([7]; incubation 12 h): +++ (“+++” represents the remaining percentage being: 70% to 90%); Percentage of remaining compound ([7]; incubation 24 h): +++ (“+++” represents the remaining percentage being: 70% to 90%)
8 | C#CCN(C)C(=O)CN1CCN(C(=O)C(C)(C)NC(=O)CCCc2ccc(Cc3cc([C@@H]4O[C@H](SC)[C@@H](O)[C@H](O)[C@H]4O)ccc3C)cc2)CC1 [Example 17] | significant activity of inhibiting SGLT1 | 0.49 nM | significantly reduce the blood sugar level | no loose stools were observed | did not reach the detection limit | 
